Legend:
Test in all cases: Kinase selectivity, DiscoverX scanMAX Kinase assay panel (% control)
Type in all cases: binding
[1] = target: T1, kinases of the scanMAX Kinase assay panel (Homo sapiens, UniProt Q00535); conditions: CDK5; 1 uM
T1 construct: purchased DiscoverX Co. (contract measurement) scanMAX Kinase assay panel
Procedure, shortened: (§1)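 Each enzyme is treated with drug at 1 uM in DMSO, then signal is scaled between a positive control (0%) and DMSO (100%) to give % control. Kinases with % control under 35% are scored as inhibited.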

[2] = target: T2, kinases of the scanMAX Kinase assay panel (Homo sapiens, UniProt Q8TF76); conditions: HASPIN; 1 uM
T2 construct: purchased DiscoverX Co. (contract measurement) scanMAX Kinase assay panel
T2 sequence (Q8TF76 1-798): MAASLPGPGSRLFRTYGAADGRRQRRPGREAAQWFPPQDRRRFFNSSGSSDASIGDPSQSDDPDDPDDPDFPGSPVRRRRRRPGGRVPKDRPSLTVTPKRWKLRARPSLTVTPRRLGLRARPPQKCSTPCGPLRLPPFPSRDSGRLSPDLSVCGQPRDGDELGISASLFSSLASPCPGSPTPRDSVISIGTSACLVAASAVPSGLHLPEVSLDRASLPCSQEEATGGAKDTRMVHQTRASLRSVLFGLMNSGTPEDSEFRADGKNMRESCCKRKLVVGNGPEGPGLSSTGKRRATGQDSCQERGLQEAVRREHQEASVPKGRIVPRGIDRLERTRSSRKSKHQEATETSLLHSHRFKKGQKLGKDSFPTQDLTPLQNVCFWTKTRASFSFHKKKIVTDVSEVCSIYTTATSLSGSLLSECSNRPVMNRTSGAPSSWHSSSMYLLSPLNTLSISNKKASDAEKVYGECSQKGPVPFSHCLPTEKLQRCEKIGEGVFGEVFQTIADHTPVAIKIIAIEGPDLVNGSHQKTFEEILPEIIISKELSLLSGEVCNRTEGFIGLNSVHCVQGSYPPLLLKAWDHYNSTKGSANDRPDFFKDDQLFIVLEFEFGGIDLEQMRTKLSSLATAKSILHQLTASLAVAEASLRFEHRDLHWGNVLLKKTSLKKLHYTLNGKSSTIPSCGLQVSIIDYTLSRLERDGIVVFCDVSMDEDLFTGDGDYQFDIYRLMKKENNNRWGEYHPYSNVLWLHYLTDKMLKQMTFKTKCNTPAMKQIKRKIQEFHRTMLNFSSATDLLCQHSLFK
Procedure, shortened: as §1

[3] = target: T3, kinases of the scanMAX Kinase assay panel (Homo sapiens, UniProt Q9NYY3); conditions: PLK2; 1 uM
T3 construct: purchased DiscoverX Co. (contract measurement) scanMAX Kinase assay panel
Procedure, shortened: as §1

[4] = target: T4, kinases of the scanMAX Kinase assay panel (Homo sapiens, UniProt O43283); conditions: LZK; 1 uM
T4 construct: purchased DiscoverX Co. (contract measurement) scanMAX Kinase assay panel
T4 sequence (O43283 1-966): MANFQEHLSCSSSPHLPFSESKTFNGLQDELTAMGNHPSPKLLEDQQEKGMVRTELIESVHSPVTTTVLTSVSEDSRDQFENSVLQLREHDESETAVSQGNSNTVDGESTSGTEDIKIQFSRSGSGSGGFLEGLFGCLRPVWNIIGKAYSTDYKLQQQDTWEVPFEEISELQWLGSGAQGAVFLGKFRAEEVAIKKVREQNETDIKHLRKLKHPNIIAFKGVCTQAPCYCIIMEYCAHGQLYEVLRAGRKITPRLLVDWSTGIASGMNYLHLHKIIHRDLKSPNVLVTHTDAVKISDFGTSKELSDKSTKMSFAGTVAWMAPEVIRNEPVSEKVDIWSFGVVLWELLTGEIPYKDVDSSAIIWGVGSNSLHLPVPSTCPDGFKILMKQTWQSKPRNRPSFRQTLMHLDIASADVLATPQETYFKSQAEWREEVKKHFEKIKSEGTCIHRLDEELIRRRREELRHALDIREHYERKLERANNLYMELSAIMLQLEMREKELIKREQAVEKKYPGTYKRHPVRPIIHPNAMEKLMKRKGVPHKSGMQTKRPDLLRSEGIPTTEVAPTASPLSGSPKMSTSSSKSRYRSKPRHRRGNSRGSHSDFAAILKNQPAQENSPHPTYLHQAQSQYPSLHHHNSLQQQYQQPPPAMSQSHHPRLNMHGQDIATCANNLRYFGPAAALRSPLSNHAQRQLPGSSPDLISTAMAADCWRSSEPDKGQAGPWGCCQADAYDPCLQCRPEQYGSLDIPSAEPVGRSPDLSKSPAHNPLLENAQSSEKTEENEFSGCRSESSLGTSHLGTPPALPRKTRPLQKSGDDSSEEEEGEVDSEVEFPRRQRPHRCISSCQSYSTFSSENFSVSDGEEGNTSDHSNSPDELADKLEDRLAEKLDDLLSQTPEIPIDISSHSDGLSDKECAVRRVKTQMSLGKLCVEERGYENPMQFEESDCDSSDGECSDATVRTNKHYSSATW
Procedure, shortened: as §1

[5] = target: T5, kinases of the scanMAX Kinase assay panel (Homo sapiens, UniProt O96013); conditions: PAK4; 1 uM
T5 construct: purchased DiscoverX Co. (contract measurement) scanMAX Kinase assay panel
Procedure, shortened: as §1

T1 sequence (Q00535 whole entry): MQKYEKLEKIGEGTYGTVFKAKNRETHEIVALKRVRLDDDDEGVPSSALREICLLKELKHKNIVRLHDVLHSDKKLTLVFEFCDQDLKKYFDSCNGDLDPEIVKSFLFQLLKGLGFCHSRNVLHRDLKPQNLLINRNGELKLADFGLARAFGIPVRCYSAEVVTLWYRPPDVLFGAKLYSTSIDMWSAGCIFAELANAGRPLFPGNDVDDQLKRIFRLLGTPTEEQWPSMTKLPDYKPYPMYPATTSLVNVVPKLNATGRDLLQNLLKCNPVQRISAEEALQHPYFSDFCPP
T3 sequence (Q9NYY3 whole entry): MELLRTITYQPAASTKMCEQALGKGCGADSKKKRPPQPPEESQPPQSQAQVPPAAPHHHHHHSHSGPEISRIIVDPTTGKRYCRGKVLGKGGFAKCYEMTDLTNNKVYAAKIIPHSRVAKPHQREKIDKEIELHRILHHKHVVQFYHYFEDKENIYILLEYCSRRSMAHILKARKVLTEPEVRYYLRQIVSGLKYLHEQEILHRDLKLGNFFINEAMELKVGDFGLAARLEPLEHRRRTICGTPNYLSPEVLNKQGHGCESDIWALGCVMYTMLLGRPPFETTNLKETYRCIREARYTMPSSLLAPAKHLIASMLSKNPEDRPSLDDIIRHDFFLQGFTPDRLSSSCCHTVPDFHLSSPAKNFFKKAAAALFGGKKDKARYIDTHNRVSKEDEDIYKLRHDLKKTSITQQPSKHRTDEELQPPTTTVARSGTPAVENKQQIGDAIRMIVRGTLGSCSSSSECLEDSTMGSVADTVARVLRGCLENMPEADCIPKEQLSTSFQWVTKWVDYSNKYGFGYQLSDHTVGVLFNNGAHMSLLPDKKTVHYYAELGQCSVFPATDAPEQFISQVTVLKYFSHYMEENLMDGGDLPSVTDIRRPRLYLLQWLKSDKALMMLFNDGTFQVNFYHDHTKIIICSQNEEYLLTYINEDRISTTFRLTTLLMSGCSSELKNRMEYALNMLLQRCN
T5 sequence (O96013 whole entry): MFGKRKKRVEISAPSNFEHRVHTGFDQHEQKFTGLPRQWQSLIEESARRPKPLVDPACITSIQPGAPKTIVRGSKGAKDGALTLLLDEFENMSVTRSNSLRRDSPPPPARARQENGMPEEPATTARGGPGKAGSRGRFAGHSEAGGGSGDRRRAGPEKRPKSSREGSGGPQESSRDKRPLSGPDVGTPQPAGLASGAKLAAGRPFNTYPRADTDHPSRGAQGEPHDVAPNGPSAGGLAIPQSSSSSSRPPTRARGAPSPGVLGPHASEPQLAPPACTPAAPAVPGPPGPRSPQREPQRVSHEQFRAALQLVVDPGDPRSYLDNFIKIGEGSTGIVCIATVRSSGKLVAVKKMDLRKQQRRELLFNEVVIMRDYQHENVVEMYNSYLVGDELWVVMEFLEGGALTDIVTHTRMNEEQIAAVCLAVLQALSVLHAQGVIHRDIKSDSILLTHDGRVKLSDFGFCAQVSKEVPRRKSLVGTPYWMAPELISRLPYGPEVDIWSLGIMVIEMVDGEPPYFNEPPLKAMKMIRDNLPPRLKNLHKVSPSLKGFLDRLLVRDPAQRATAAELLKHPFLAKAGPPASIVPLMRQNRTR

CNc1nc(Nc2ccc(C(=O)N3CCOCC3)cc2OC)nc2[nH]cc(C#N)c12 [Example 1, 2-((2-methoxy-4-(morpholine-4-carbonyl)phenyl)amino)-4-(methylamino)-7H-pyrrolo[2,3-d]pyrimidine-5-carbonitrile]
remaining binding at 1 µM [1]: 96% | remaining binding at 1 µM [2]: 63% | remaining binding at 1 µM [3]: 81% | remaining binding at 1 µM [4]: 81% | remaining binding at 1 µM [5]: 79%

CC1(Nc2nc(Nc3cnn([C@H]4CCN(C5COC5)C[C@@H]4F)c3Cl)nc3[nH]cc(C#N)c23)CC1 [Example 52, 2-((5-chloro-1-((3S,4S)-3-fluoro-1-(oxetane-3-yl)piperidine-4-yl)-1H-pyrazole-4-yl)amino)((1-methylcyclopropyl)amino)-7H-pyrrolo[2,3-d]pyrimidine-5-carbonitrile]
remaining binding at 1 µM [1]: 63% | remaining binding at 1 µM [2]: 100% | remaining binding at 1 µM [3]: 93% | remaining binding at 1 µM [4]: 16% | remaining binding at 1 µM [5]: 3.4%

CCNc1nc(Nc2ccc(C(=O)N3CCC(N4CCOCC4)CC3)cc2OC)nc2[nH]cc(C(F)(F)F)c12 [Example 104, (4-((4-(ethylamino)-5-(trifluoromethyl)-7H-pyrrolo[2,3-d]pyrimidine-2-yl)amino)-3-methoxyphenyl)(4-morpholinopiperidine-1-yl)methanone]
remaining binding at 1 µM [1]: 100% | remaining binding at 1 µM [2]: 100% | remaining binding at 1 µM [3]: 100% | remaining binding at 1 µM [4]: 100% | remaining binding at 1 µM [5]: 100%

Reference: patent publication US11208412B2 (DAEGU-GYEONGBUK MEDICAL INNOVATION FOUNDATION, priority 2017, dated 2021)
